This passage reports HC50 results from ChEMBL document CHEMBL1147199, “Exploration of the correlation between the structure, hemolytic activity, and cytotoxicity of steroid saponins” (Bioorg Med Chem, 2007).

Where only a bound is given, the exact number is not on record here.

This series can be described thus: Cytotoxicity against human erythrocytes assessed as hemolytic activity after 60 mins. Format: cell-based, Erythrocyte. The conditions noted are these: read-out: HD50.
On to `CCCCCC(=O)O[C@H]1[C@H](O)[C@H](O)[C@@H](O[C@H]2[C@H](O)[C@@H](O[C@H]3O[C@H](C)[C@@H](O)[C@H](O)[C@@H]3O)[C@H](O[C@H]3CC[C@@]4(C)C(=CC[C@H]5[C@@H]6C[C@@H]7O[C@]8(CC[C@@H](C)CO8)[C@@H](C)[C@@H]7[C@@]6(C)CC[C@@H]54)C3)O[C@@H]2CO)O[C@@H]1C`, for which the HC50 at 1 h was found to be 2.2 µM. For `C[C@@H]1CC[C@@]2(OC1)O[C@H]1C[C@H]3[C@@H]4CC=C5C[C@@H](O[C@@H]6O[C@H](CNC(=O)COc7ccccc7)[C@@H](O[C@H]7O[C@H](C)[C@@H](O)[C@H](O)[C@@H]7O)[C@H](O)[C@H]6O[C@H]6O[C@H](C)[C@@H](O)[C@H](O)[C@@H]6O)CC[C@]5(C)[C@H]4CC[C@]3(C)[C@H]1[C@@H]2C`, the HC50 at 1 h was 9.4 µM. `CCCCCC(=O)O[C@H]1C[C@@H]2[C@H](CC[C@]3(C)[C@@H]4[C@H](C[C@@H]23)O[C@]2(CC[C@@H](C)CO2)[C@H]4C)[C@@]2(C)C[C@@H](O)[C@H](O[C@@H]3O[C@H](CO)[C@@H](O[C@H]4O[C@H](C)[C@@H](O)[C@H](O)[C@@H]4O)[C@H](O)[C@H]3O[C@H]3O[C@H](C)[C@@H](O)[C@H](O)[C@@H]3O)C[C@H]12`: the HC50 at 1 h was 7.6 µM.

In the case of `C[C@@H]1CC[C@@]2(OC1)O[C@H]1C[C@H]3[C@@H]4CC[C@H]5C[C@@H](O[C@@H]6O[C@H](CO)[C@H](O[C@H]7O[C@H](C)[C@@H](O)[C@H](O)[C@@H]7O)[C@H](O)[C@H]6O[C@@H]6O[C@@H](C)[C@H](O)[C@@H](O)[C@H]6O)[C@H](O)C[C@]5(C)[C@H]4CC[C@]3(C)[C@H]1[C@@H]2C`, the HC50 at 1 h was 9.6 µM. In the case of `C/C=C/C=C/C(=O)NC[C@H]1O[C@@H](O[C@H]2CC[C@@]3(C)C(=CC[C@H]4[C@@H]5C[C@@H]6O[C@]7(CC[C@@H](C)CO7)[C@@H](C)[C@@H]6[C@@]5(C)CC[C@@H]43)C2)[C@H](O[C@H]2O[C@H](C)[C@@H](O)[C@H](O)[C@@H]2O)[C@@H](O)[C@@H]1O[C@H]1O[C@H](C)[C@@H](O)[C@H](O)[C@@H]1O`, the HC50 at 1 h is 9.3 µM. With `C=CCCCCCCCCC(=O)NC[C@H]1O[C@@H](O[C@H]2CC[C@@]3(C)C(=CC[C@H]4[C@@H]5C[C@@H]6O[C@]7(CC[C@@H](C)CO7)[C@@H](C)[C@@H]6[C@@]5(C)CC[C@@H]43)C2)[C@H](O[C@H]2O[C@H](C)[C@@H](O)[C@H](O)[C@@H]2O)[C@@H](O)[C@@H]1O[C@H]1O[C@H](C)[C@@H](O)[C@H](O)[C@@H]1O`, the HC50 at 1 h was over 50 µg/mL. In the case of `C[C@@H]1CC[C@@]2(OC1)O[C@H]1C[C@H]3[C@@H]4CC[C@H]5C[C@@H](O[C@@H]6O[C@H](CO)[C@@H](O[C@H]7O[C@H](C)[C@@H](O)[C@H](O)[C@@H]7O)[C@H](O)[C@H]6O[C@H]6O[C@H](C)[C@@H](O)[C@H](O)[C@@H]6O)[C@H](O)C[C@]5(C)[C@H]4CC[C@]3(C)[C@H]1[C@@H]2C`, the HC50 at 1 h is 13.1 µM. Consider `C[C@@H]1CC[C@@]2(OC1)O[C@H]1C[C@H]3[C@@H]4CC[C@H]5C[C@@H](O[C@@H]6O[C@H](CO)[C@H](O)[C@H](O)[C@H]6O[C@H]6O[C@H](C)[C@@H](O)[C@H](O)[C@@H]6O)[C@H](O)C[C@]5(C)[C@H]4CC[C@]3(C)[C@H]1[C@@H]2C`, for which the HC50 at 1 h was 7.5 µM. Regarding `C[C@@H]1CC[C@@]2(OC1)O[C@H]1C[C@H]3[C@@H]4CC=C5C[C@@H](O[C@@H]6O[C@H](CNC(=O)CCCCl)[C@@H](O[C@H]7O[C@H](C)[C@@H](O)[C@H](O)[C@@H]7O)[C@H](O)[C@H]6O[C@H]6O[C@H](C)[C@@H](O)[C@H](O)[C@@H]6O)CC[C@]5(C)[C@H]4CC[C@]3(C)[C@H]1[C@@H]2C`, the HC50 at 1 h is 20.9 µM. For the molecule `C[C@@H]1CC[C@@]2(OC1)O[C@H]1C[C@H]3[C@@H]4CC=C5C[C@@H](O[C@@H]6O[C@H](CNC(=O)c7ccccc7)[C@@H](O[C@H]7O[C@H](C)[C@@H](O)[C@H](O)[C@@H]7O)[C@H](O)[C@H]6O[C@H]6O[C@H](C)[C@@H](O)[C@H](O)[C@@H]6O)CC[C@]5(C)[C@H]4CC[C@]3(C)[C@H]1[C@@H]2C`, the HC50 at 1 h was found to be 10.7 µM. Turning to `C[C@@H]1CC[C@@]2(OC1)O[C@H]1C[C@H]3[C@@H]4CC=C5C[C@@H](O[C@@H]6O[C@H](CN=[N+]=[N-])[C@@H](O[C@H]7O[C@H](C)[C@@H](O)[C@H](O)[C@@H]7O)[C@H](O)[C@H]6O[C@H]6O[C@H](C)[C@@H](O)[C@H](O)[C@@H]6O)CC[C@]5(C)[C@H]4CC[C@]3(C)[C@H]1[C@@H]2C`, the HC50 at 1 h was over 50 µg/mL. For `C[C@@H]1CC[C@@]2(OC1)O[C@H]1C[C@H]3[C@@H]4CC=C5C[C@@H](O[C@@H]6O[C@H](CNC(=O)c7ccccc7I)[C@@H](O[C@H]7O[C@H](C)[C@@H](O)[C@H](O)[C@@H]7O)[C@H](O)[C@H]6O[C@H]6O[C@H](C)[C@@H](O)[C@H](O)[C@@H]6O)CC[C@]5(C)[C@H]4CC[C@]3(C)[C@H]1[C@@H]2C`, the HC50 at 1 h was determined as 7.4 µM.

As to `CCCC(=O)O[C@H]1[C@H](O)[C@H](O)[C@@H](O[C@H]2[C@H](O)[C@@H](O[C@H]3O[C@H](C)[C@@H](O)[C@H](O)[C@@H]3O)[C@H](O[C@H]3CC[C@@]4(C)C(=CC[C@H]5[C@@H]6C[C@@H]7O[C@]8(CC[C@@H](C)CO8)[C@@H](C)[C@@H]7[C@@]6(C)CC[C@@H]54)C3)O[C@@H]2CO)O[C@@H]1C`, the HC50 at 1 h amounted to 2.8 µM. As to `C[C@@H]1CC[C@@]2(OC1)O[C@H]1C[C@H]3[C@@H]4CC=C5C[C@@H](O[C@@H]6O[C@H](CNC(=O)C(F)(F)F)[C@@H](O[C@H]7O[C@H](C)[C@@H](O)[C@H](O)[C@@H]7O)[C@H](O)[C@H]6O[C@H]6O[C@H](C)[C@@H](O)[C@H](O)[C@@H]6O)CC[C@]5(C)[C@H]4CC[C@]3(C)[C@H]1[C@@H]2C`, the HC50 at 1 h is 18.5 µM. On to `CC(=O)OC[C@H]1O[C@H](O[C@H]2[C@H](O)[C@@H](O[C@H]3O[C@H](C)[C@@H](O)[C@H](O)[C@@H]3O)[C@H](O[C@H]3CC[C@@]4(C)C(=CC[C@H]5[C@@H]6C[C@@H]7O[C@]8(CC[C@@H](C)CO8)[C@@H](C)[C@@H]7[C@@]6(C)CC[C@@H]54)C3)O[C@@H]2CO)[C@@H](O)[C@@H]1OC(C)=O`, for which the HC50 at 1 h turned out to be 2.7 µM. The same measure for `CCCCCCCCCCCCCCCCCC(=O)NC[C@H]1O[C@@H](O[C@H]2CC[C@@]3(C)C(=CC[C@H]4[C@@H]5C[C@@H]6O[C@]7(CC[C@@H](C)CO7)[C@@H](C)[C@@H]6[C@@]5(C)CC[C@@H]43)C2)[C@H](O[C@H]2O[C@H](C)[C@@H](O)[C@H](O)[C@@H]2O)[C@@H](O)[C@@H]1O[C@H]1O[C@H](C)[C@@H](O)[C@H](O)[C@@H]1O`: over 50 µg/mL. For `C[C@@H]1CC[C@@]2(OC1)O[C@H]1C[C@H]3[C@@H]4CC=C5C[C@@H](O[C@@H]6O[C@H](CNC(=O)c7ccc([N+](=O)[O-])cc7)[C@@H](O[C@H]7O[C@H](C)[C@@H](O)[C@H](O)[C@@H]7O)[C@H](O)[C@H]6O[C@H]6O[C@H](C)[C@@H](O)[C@H](O)[C@@H]6O)CC[C@]5(C)[C@H]4CC[C@]3(C)[C@H]1[C@@H]2C`, the HC50 at 1 h came to 39 µM. As to `C[C@@H]1CC[C@@]2(OC1)O[C@H]1C[C@H]3[C@@H]4CC=C5C[C@@H](O[C@@H]6O[C@H](CN)[C@@H](O[C@H]7O[C@H](C)[C@@H](O)[C@H](O)[C@@H]7O)[C@H](O)[C@H]6O[C@H]6O[C@H](C)[C@@H](O)[C@H](O)[C@@H]6O)CC[C@]5(C)[C@H]4CC[C@]3(C)[C@H]1[C@@H]2C`, the HC50 at 1 h was determined as 24.8 µM. The same measure for `COc1ccc(C(=O)NC[C@H]2O[C@@H](O[C@H]3CC[C@@]4(C)C(=CC[C@H]5[C@@H]6C[C@@H]7O[C@]8(CC[C@@H](C)CO8)[C@@H](C)[C@@H]7[C@@]6(C)CC[C@@H]54)C3)[C@H](O[C@H]3O[C@H](C)[C@@H](O)[C@H](O)[C@@H]3O)[C@@H](O)[C@@H]2O[C@H]2O[C@H](C)[C@@H](O)[C@H](O)[C@@H]2O)cc1`: 9.5 µM. Consider `CCCCCCCCCC(=O)O[C@H]1C[C@@H]2[C@H](CC[C@]3(C)[C@@H]4[C@H](C[C@@H]23)O[C@]2(CC[C@@H](C)CO2)[C@H]4C)[C@@]2(C)C[C@@H](O)[C@H](O[C@@H]3O[C@H](CO)[C@@H](O[C@H]4O[C@H](C)[C@@H](O)[C@H](O)[C@@H]4O)[C@H](O)[C@H]3O[C@H]3O[C@H](C)[C@@H](O)[C@H](O)[C@@H]3O)C[C@H]12`, for which the HC50 at 1 h amounted to 6.7 µM. The same measure for `C[C@@H]1CC[C@@]2(OC1)O[C@H]1C[C@H]3[C@@H]4CC[C@H]5C[C@@H](O[C@@H]6O[C@H](CO)[C@@H](O[C@H]7O[C@H](C)[C@@H](O)[C@H](O)[C@@H]7O)[C@H](O)[C@H]6O[C@H]6O[C@H](C)[C@@H](O)[C@H](O)[C@@H]6O)CC[C@]5(C)[C@H]4CC[C@]3(C)[C@H]1[C@@H]2C`: 3 µM. The result for `CC(=O)NC[C@H]1O[C@@H](O[C@H]2CC[C@@]3(C)C(=CC[C@H]4[C@@H]5C[C@@H]6O[C@]7(CC[C@@H](C)CO7)[C@@H](C)[C@@H]6[C@@]5(C)CC[C@@H]43)C2)[C@H](O[C@H]2O[C@H](C)[C@@H](O)[C@H](O)[C@@H]2O)[C@@H](O)[C@@H]1O[C@H]1O[C@H](C)[C@@H](O)[C@H](O)[C@@H]1O` reads over 50 µg/mL. With `CCCCCCCCCCCCCC(=O)NC[C@H]1O[C@@H](O[C@H]2CC[C@@]3(C)C(=CC[C@H]4[C@@H]5C[C@@H]6O[C@]7(CC[C@@H](C)CO7)[C@@H](C)[C@@H]6[C@@]5(C)CC[C@@H]43)C2)[C@H](O[C@H]2O[C@H](C)[C@@H](O)[C@H](O)[C@@H]2O)[C@@H](O)[C@@H]1O[C@H]1O[C@H](C)[C@@H](O)[C@H](O)[C@@H]1O`, the HC50 at 1 h was over 50 µg/mL.
